Laboratory results published in patent US20080009418A1, “Selective Inhibitors” (Alchemia LTD., priority 2004, published 2008).

Columns and labels:
Details in all cases: compound at 10 μM
Human δ-opioid (DOP) = target: T1, Human δ-opioid (DOP) (Homo sapiens, UniProt P41143); test: Radioligand binding, human δ-opioid (DOP) membranes, FlashPlate, [3H]-Bremazocine
T1 construct: purchased Perkin Elmer Biosignal
Method in brief: (§1)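 Cloned human receptor membranes were coated onto FlashPlate wells and incubated with radioligand and compound (added from a 0.5 mM DMSO daughter plate) for 1 hour at room temperature in the dark. Scintillation counting gave percent inhibition, with DMSO defining total and reference ligand defining non-specific binding.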

Human κ-Opioid (KOP) = target: T2, Human κ-Opioid (KOP) (Homo sapiens, UniProt P41145); test: Radioligand binding, human κ-opioid (KOP) membranes, filtration, [3H]-Diprenorphine
T2 construct: purchased Perkin Elmer Biosignal
Method in brief: (§2)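 Membranes from cloned human receptors were incubated with compound and radioligand for 1 hour at room temperature. Bound ligand was collected on 0.3% PEI-soaked filters, washed with cold 50 mM Tris-HCl pH 7.4, and counted by scintillation. Percent inhibition was computed against DMSO totals and reference-ligand nonspecific wells.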

Human Melanocortin (MC3) = target: T3, Human Melanocortin (MC3) (Homo sapiens, UniProt P41968); test: Radioligand binding, human melanocortin MC3 membranes, FlashPlate, [125I]-NDP-αMSH
T3 construct: purchased Perkin Elmer Biosignal
Method in brief: as §1

Human Melanocortin (MC4) = target: T4, Human Melanocortin (MC4) (Homo sapiens, UniProt P32245); test: Radioligand binding, human melanocortin MC4 membranes, FlashPlate, [125I]-NDP-αMSH
T4 construct: purchased Perkin Elmer Biosignal
Method in brief: as §1

Human melanocortin (MC5) = target: T5, Human melanocortin (MC5) (Homo sapiens, UniProt P33032); test: Radioligand binding, human melanocortin MC5 membranes, FlashPlate, [125I]-NDP-αMSH
T5 construct: purchased Perkin Elmer Biosignal
Method in brief: as §1

[1] = target: T6, Human melanin-concentrating hormone (MCH1) (Homo sapiens, UniProt Q99705); test: Radioligand binding, human melanin-concentrating hormone MCH1 membranes, FlashPlate, [125I]-S36057
T6 construct: purchased Perkin Elmer Biosignal
Method in brief: as §1

Human μ-opioid (MOP) = target: T7, Human μ-opioid (MOP) (Homo sapiens, UniProt P35372); test: Radioligand binding, human μ-opioid (MOP) membranes, FlashPlate, [3H]-Naloxone
T7 construct: purchased Perkin Elmer Biosignal
Method in brief: as §1

Human neurokinin (NK1) = target: T8, Human neurokinin (NK1) (Homo sapiens, UniProt P25103); test: Radioligand binding, human neurokinin NK1 membranes, filtration, [125I]-Substance P
T8 construct: purchased Perkin Elmer Biosignal
Method in brief: as §2

[2] = target: T9, Human neuropeptide Y (NPY-Y1) (Homo sapiens, UniProt P25929); test: Radioligand binding, human neuropeptide Y NPY-Y1 membranes, FlashPlate, [125I]-PYY
T9 construct: purchased Perkin Elmer Biosignal
T9 sequence (P25929 1-384): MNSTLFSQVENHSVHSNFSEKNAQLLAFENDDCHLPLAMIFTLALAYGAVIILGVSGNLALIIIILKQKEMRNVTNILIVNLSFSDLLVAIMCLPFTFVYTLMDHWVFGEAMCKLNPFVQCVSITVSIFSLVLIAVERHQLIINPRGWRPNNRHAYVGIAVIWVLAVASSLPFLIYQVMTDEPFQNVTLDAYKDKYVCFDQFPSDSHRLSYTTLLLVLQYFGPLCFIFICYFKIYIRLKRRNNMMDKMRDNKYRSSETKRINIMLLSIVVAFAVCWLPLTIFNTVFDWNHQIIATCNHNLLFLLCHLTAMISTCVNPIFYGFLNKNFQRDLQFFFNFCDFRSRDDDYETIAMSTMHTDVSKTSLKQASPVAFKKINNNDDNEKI
Method in brief: as §1

Human opioid (ORL1) = target: T10, Human opioid (ORL1) (Homo sapiens, UniProt P41146); test: Radioligand binding, human opioid ORL1 membranes, FlashPlate, [125I]-Nociceptin
T10 construct: purchased Perkin Elmer Biosignal
Method in brief: as §1

Mouse urotensin (mUR2) = target: T11, Mouse urotensin (mUR2) (Mus musculus, UniProt Q8VIH9); test: Radioligand binding, mouse urotensin mUR2 membranes, FlashPlate, [125I]-Urotensin II
T11 construct: purchased Perkin Elmer Biosignal
T11 sequence (Q8VIH9 1-385): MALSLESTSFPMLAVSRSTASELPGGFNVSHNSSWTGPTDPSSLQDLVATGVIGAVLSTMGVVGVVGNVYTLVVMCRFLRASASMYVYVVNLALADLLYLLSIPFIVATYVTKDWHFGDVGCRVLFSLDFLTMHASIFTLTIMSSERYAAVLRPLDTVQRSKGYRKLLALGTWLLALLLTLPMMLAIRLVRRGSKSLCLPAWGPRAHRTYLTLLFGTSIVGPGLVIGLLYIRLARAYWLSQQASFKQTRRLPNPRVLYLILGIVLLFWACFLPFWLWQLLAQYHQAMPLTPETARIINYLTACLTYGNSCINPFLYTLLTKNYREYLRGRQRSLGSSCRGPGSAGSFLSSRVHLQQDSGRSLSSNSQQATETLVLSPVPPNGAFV
Method in brief: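 Cloned mouse urotensin (mUR2) receptor membranes from Perkin Elmer Biosignal were immobilized in FlashPlate microplates using a proprietary coating. Each well got 19.5 μl buffer, then 0.5 μl of DMSO, reference ligand, or compound. Adding 5 μl of [125I]-Urotensin II, diluted to 5× final concentration in binding buffer, started binding. Plates were sealed with TopSeal-A and incubated 1 hour at room temperature in the dark. Wells were counted for 30 seconds each on a TopCount after a 60-second delay, and percentage inhibition was calculated.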

T6 sequence (Q99705 whole entry): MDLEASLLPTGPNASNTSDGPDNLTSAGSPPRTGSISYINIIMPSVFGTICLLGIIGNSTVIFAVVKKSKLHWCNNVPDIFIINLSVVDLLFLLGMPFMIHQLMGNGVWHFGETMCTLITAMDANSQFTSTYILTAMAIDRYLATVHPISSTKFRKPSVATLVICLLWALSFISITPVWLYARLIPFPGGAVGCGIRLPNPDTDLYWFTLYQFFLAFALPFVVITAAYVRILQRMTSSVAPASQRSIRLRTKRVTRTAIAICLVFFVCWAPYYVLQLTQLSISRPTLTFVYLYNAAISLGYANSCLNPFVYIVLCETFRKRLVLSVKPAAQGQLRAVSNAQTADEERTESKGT
T5 sequence (P33032 whole entry): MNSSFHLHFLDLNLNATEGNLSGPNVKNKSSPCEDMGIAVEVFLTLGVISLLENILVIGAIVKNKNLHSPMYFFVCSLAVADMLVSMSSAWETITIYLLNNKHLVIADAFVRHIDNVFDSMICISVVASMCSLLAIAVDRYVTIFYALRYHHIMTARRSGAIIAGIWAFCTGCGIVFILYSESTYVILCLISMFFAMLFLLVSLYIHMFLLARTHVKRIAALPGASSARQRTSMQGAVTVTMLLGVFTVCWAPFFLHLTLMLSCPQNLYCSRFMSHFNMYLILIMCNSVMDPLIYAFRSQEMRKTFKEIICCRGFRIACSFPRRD
T8 sequence (P25103 whole entry): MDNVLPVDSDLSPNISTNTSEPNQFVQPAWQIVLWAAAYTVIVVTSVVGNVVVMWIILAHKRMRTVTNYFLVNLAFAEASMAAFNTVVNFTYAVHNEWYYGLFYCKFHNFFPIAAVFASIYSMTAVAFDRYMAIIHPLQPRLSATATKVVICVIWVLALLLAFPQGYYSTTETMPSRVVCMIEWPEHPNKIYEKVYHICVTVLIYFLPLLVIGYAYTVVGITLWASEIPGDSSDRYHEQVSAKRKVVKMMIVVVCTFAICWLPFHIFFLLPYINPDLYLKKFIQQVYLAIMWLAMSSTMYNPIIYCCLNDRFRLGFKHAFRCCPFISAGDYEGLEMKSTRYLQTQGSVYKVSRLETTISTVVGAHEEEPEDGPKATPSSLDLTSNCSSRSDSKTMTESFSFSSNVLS
T3 sequence (P41968 whole entry): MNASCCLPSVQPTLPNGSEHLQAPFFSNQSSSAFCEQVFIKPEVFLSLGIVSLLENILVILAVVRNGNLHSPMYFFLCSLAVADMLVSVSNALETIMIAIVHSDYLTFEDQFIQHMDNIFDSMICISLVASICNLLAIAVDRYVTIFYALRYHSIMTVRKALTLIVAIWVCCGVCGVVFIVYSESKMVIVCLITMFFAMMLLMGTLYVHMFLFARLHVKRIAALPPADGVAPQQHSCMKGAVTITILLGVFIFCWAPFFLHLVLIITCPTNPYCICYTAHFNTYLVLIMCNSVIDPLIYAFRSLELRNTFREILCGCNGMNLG
T7 sequence (P35372 whole entry): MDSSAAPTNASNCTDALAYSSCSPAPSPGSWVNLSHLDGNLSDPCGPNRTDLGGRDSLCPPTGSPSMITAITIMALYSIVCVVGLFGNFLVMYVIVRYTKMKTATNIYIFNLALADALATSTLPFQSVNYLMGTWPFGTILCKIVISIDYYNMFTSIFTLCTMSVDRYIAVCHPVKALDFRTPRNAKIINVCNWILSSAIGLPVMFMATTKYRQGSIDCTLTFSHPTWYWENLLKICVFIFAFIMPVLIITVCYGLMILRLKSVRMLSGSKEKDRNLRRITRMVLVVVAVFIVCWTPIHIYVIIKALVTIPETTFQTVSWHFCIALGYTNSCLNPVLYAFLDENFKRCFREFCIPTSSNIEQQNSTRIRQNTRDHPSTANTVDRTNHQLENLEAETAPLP
T2 sequence (P41145 whole entry): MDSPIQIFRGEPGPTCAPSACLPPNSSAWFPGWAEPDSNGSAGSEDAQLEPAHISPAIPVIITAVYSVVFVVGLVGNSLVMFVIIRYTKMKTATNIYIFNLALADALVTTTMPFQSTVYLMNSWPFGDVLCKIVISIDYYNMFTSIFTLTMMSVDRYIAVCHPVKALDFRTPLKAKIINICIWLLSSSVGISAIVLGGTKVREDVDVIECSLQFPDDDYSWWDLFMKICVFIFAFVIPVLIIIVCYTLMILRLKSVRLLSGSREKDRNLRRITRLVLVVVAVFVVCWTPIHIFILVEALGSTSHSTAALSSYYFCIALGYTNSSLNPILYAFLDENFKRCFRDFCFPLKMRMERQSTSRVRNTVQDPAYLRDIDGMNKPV
T10 sequence (P41146 whole entry): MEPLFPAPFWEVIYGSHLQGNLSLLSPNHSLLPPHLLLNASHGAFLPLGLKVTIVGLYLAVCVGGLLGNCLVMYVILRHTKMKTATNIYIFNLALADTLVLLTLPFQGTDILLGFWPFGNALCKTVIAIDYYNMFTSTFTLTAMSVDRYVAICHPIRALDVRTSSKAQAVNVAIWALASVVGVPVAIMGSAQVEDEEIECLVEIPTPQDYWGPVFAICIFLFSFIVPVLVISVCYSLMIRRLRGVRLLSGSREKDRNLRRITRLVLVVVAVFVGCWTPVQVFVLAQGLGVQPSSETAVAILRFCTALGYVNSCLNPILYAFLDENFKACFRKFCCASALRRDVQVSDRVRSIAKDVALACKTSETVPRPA
T1 sequence (P41143 whole entry): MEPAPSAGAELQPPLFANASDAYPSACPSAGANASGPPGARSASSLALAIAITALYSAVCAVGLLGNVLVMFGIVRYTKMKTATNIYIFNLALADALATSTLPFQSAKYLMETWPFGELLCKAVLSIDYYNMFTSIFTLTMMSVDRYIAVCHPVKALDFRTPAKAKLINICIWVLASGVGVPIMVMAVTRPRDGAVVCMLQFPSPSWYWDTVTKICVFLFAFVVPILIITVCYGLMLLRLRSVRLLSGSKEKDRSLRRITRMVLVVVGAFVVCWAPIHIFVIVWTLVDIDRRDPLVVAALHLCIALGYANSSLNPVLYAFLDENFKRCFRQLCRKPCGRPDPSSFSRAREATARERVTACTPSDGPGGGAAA
T4 sequence (P32245 whole entry): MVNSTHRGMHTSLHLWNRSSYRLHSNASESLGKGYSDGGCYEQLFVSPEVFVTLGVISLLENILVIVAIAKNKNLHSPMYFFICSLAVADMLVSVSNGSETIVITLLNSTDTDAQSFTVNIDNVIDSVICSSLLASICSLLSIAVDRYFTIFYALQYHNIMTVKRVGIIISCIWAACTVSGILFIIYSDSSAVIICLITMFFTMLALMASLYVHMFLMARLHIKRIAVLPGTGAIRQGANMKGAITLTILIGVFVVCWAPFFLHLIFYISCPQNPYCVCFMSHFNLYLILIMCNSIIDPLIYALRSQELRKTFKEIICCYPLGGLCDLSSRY

COC[C@H]1OC(OCc2ccc3ccccc3c2)[C@H](NC(=O)CCCN)[C@@H](OCc2cccc(O)c2)[C@@H]1O (stereo partly shown) [compound 134]
A1 radioligand binding, percentage inhibition (Human δ-opioid (DOP); [3H]-Bremazocine): − (“−” indicates less than 50% inhibition at 10 μM)
A2 radioligand binding, percentage inhibition (Human κ-Opioid (KOP); [3H]-Diprenorphine): − (“−” indicates less than 50% inhibition at 10 μM)
A3 radioligand binding, percentage inhibition (Human Melanocortin (MC3); [125I]-NDP-αMSH): − (“−” indicates less than 50% inhibition at 10 μM)
A4 radioligand binding, percentage inhibition (Human Melanocortin (MC4); [125I]-NDP-αMSH): − (“−” indicates less than 50% inhibition at 10 μM)
A5 radioligand binding, percentage inhibition (Human melanocortin (MC5); [125I]-NDP-αMSH): − (“−” indicates less than 50% inhibition at 10 μM)
A6 radioligand binding, percentage inhibition ([1]; [125I]-S36057): − (“−” indicates less than 50% inhibition at 10 μM)
A7 radioligand binding, percentage inhibition (Human μ-opioid (MOP); [3H]-Naloxone): + (“+” indicates greater than 50% inhibition at 10 μM)
A8 radioligand binding, percentage inhibition (Human neurokinin (NK1); [125I]-Substance P): − (“−” indicates less than 50% inhibition at 10 μM)
A9 radioligand binding, percentage inhibition ([2]; [125I]-PYY): − (“−” indicates less than 50% inhibition at 10 μM)
A10 radioligand binding, percentage inhibition (Human opioid (ORL1); [125I]-Nociceptin): − (“−” indicates less than 50% inhibition at 10 μM)
A11 radioligand binding, percentage inhibition (Mouse urotensin (mUR2); [125I]-Urotensin II): − (“−” indicates less than 50% inhibition at 10 μM)

COC[C@H]1OC(OCc2ccc3ccccc3c2)[C@H](NC(=O)CCNC(=N)N)[C@@H](OCc2ccccc2)[C@@H]1O (stereo partly shown) [compound 19]
A1 radioligand binding inhibition (Human δ-opioid (DOP); human δ-opioid (DOP) membranes): − (“−” indicates less than 50% inhibition at 10 μM)
A2 radioligand binding inhibition (Human κ-Opioid (KOP); human κ-opioid (KOP) membranes): − (“−” indicates less than 50% inhibition at 10 μM)
A3 radioligand binding inhibition (Human Melanocortin (MC3); human melanocortin MC3 membranes): − (“−” indicates less than 50% inhibition at 10 μM)
A4 radioligand binding inhibition (Human Melanocortin (MC4); human melanocortin MC4 membranes): − (“−” indicates less than 50% inhibition at 10 μM)
A5 radioligand binding inhibition (Human melanocortin (MC5); human melanocortin MC5 membranes): − (“−” indicates less than 50% inhibition at 10 μM)
A6 radioligand binding inhibition ([1]; human MCH1 membranes): − (“−” indicates less than 50% inhibition at 10 μM)
A7 radioligand binding inhibition (Human μ-opioid (MOP); human μ-opioid (MOP) membranes): + (“+” indicates greater than 50% inhibition at 10 μM)
A8 radioligand binding inhibition (Human neurokinin (NK1); human neurokinin NK1 membranes): + (“+” indicates greater than 50% inhibition at 10 μM)
A9 radioligand binding inhibition ([2]; human NPY-Y1 membranes): − (“−” indicates less than 50% inhibition at 10 μM)
A10 radioligand binding inhibition (Human opioid (ORL1); human ORL1 membranes): − (“−” indicates less than 50% inhibition at 10 μM)
A11 radioligand binding inhibition (Mouse urotensin (mUR2); mouse urotensin mUR2 membranes): − (“−” indicates less than 50% inhibition at 10 μM)

NCCC(=O)NC1C(OCc2ccc(Cl)cc2)OC(COCc2ccc3ccccc3c2)C(O)C1OCc1ccc(Cl)cc1 (single isomer, unassigned) [compound 471]
A1: inhibition of radioligand binding (Human δ-opioid (DOP); [3H]-Bremazocine, human DOP membranes): − (“−” indicates less than 50% inhibition at 10 μM)
A2: inhibition of radioligand binding (Human κ-Opioid (KOP); [3H]-Diprenorphine, human KOP membranes): − (“−” indicates less than 50% inhibition at 10 μM)
A3: inhibition of radioligand binding (Human Melanocortin (MC3); [125I]-NDP-αMSH, human MC3 membranes): + (“+” indicates greater than 50% inhibition at 10 μM)
A4: inhibition of radioligand binding (Human Melanocortin (MC4); [125I]-NDP-αMSH, human MC4 membranes, 10 µM): − (“−” indicates less than 50% inhibition at 10 μM)
A5: inhibition of radioligand binding (Human melanocortin (MC5); [125I]-NDP-αMSH, human MC5 membranes): + (“+” indicates greater than 50% inhibition at 10 μM)
A6: inhibition of radioligand binding ([1]; [125I]-S36057, human MCH1 membranes, 10 µM): − (“−” indicates less than 50% inhibition at 10 μM)
A7: inhibition of radioligand binding (Human μ-opioid (MOP); [3H]-Naloxone, human MOP membranes): − (“−” indicates less than 50% inhibition at 10 μM)
A8: inhibition of radioligand binding (Human neurokinin (NK1); [125I]-Substance P, human NK1 membranes): + (“+” indicates greater than 50% inhibition at 10 μM)
A9: inhibition of radioligand binding ([2]; [125I]-PYY, human NPY-Y1 membranes): − (“−” indicates less than 50% inhibition at 10 μM)
A10: inhibition of radioligand binding (Human opioid (ORL1); [125I]-Nociceptin, human ORL1 membranes): − (“−” indicates less than 50% inhibition at 10 μM)
A11: inhibition of radioligand binding (Mouse urotensin (mUR2); [125I]-Urotensin II, mouse mUR2 membranes): − (“−” indicates less than 50% inhibition at 10 μM)

CSC1O[C@H](COCc2ccc(-c3ccccc3)cc2)[C@@H](O)[C@@H](OCc2ccc(-c3ccccc3)cc2)[C@H]1NC(=O)CCCN (stereo partly shown) [compound 294]
A1: inhibition of radioligand binding, human δ-opioid (DOP) (Human δ-opioid (DOP); [3H]-Bremazocine): − (“−” indicates less than 50% inhibition at 10 μM)
A2: inhibition of radioligand binding, human κ-opioid (KOP) (Human κ-Opioid (KOP); [3H]-Diprenorphine): − (“−” indicates less than 50% inhibition at 10 μM)
A3: inhibition of radioligand binding, human melanocortin (MC3) (Human Melanocortin (MC3); [125I]-NDP-αMSH): − (“−” indicates less than 50% inhibition at 10 μM)
A4: inhibition of radioligand binding, human melanocortin (MC4) (Human Melanocortin (MC4); [125I]-NDP-αMSH): − (“−” indicates less than 50% inhibition at 10 μM)
A5: inhibition of radioligand binding, human melanocortin (MC5) (Human melanocortin (MC5); [125I]-NDP-αMSH): + (“+” indicates greater than 50% inhibition at 10 μM)
A6: inhibition of radioligand binding, human melanin-concentrating hormone (MCH1) ([1]; [125I]-S36057): − (“−” indicates less than 50% inhibition at 10 μM)
A7: inhibition of radioligand binding, human μ-opioid (MOP) (Human μ-opioid (MOP); [3H]-Naloxone): − (“−” indicates less than 50% inhibition at 10 μM)
A8: inhibition of radioligand binding, human neurokinin (NK1) (Human neurokinin (NK1); [125I]-Substance P): + (“+” indicates greater than 50% inhibition at 10 μM)
A9: inhibition of radioligand binding, human neuropeptide Y (NPY-Y1) ([2]; [125I]-PYY): − (“−” indicates less than 50% inhibition at 10 μM)
A10: inhibition of radioligand binding, human opioid (ORL1) (Human opioid (ORL1); [125I]-Nociceptin): − (“−” indicates less than 50% inhibition at 10 μM)
A11: inhibition of radioligand binding, mouse urotensin (mUR2) (Mouse urotensin (mUR2); [125I]-Urotensin II): − (“−” indicates less than 50% inhibition at 10 μM)

CSC1OC(COCc2ccccc2)C(O)C(OCc2ccc(Cl)cc2)C1NC(=O)CCCNC(=N)N (stereo not shown) [compound 268]
A1: inhibition of radioligand binding (Human δ-opioid (DOP); [3H]-Bremazocine, FlashPlate): − (“−” indicates less than 50% inhibition at 10 μM)
A2: inhibition of radioligand binding (Human κ-Opioid (KOP); [3H]-Diprenorphine, filtration): − (“−” indicates less than 50% inhibition at 10 μM)
A3: inhibition of radioligand binding (Human Melanocortin (MC3); [125I]-NDP-αMSH, FlashPlate): − (“−” indicates less than 50% inhibition at 10 μM)
A4: inhibition of radioligand binding (Human Melanocortin (MC4); [125I]-NDP-αMSH, FlashPlate): − (“−” indicates less than 50% inhibition at 10 μM)
A5: inhibition of radioligand binding (Human melanocortin (MC5); [125I]-NDP-αMSH, FlashPlate): + (“+” indicates greater than 50% inhibition at 10 μM)
A6: inhibition of radioligand binding ([1]; [125I]-S36057, FlashPlate): − (“−” indicates less than 50% inhibition at 10 μM)
A7: inhibition of radioligand binding (Human μ-opioid (MOP); [3H]-Naloxone, FlashPlate): − (“−” indicates less than 50% inhibition at 10 μM)
A8: inhibition of radioligand binding (Human neurokinin (NK1); [125I]-Substance P, filtration): + (“+” indicates greater than 50% inhibition at 10 μM)
A9: inhibition of radioligand binding ([2]; [125I]-PYY, FlashPlate): − (“−” indicates less than 50% inhibition at 10 μM)
A10: inhibition of radioligand binding (Human opioid (ORL1); [125I]-Nociceptin, FlashPlate): − (“−” indicates less than 50% inhibition at 10 μM)
A11: inhibition of radioligand binding (Mouse urotensin (mUR2); [125I]-Urotensin II, FlashPlate): − (“−” indicates less than 50% inhibition at 10 μM)
